Results taken from ChEMBL document CHEMBL2074403, “The solvents cremophor EL and Tween 80 modulate daunorubicin resistance in the multidrug resistant Ehrlich ascites tumor” (Cancer Commun, 1990).

Key:
[1] = target: T1, ATP-dependent translocase ABCB1 (Homo sapiens, UniProt P08183); assay: TP_TRANSPORTER: inhibition of Daunorubicin efflux (Daunorubicin: 5 uM, Cremophor EL: 0.01 %(v/v)) in EHR2/DNR+ cells; format: functional, cell-based; conditions: mouse
[2] = target: T1, ATP-dependent translocase ABCB1; assay: TP_TRANSPORTER: inhibition of Daunorubicin efflux (Daunorubicin: 5 uM, Tween 80: 0.01 %(v/v)) in EHR2/DNR+ cells; format: functional, cell-based; conditions: mouse

T1 sequence (P08183 whole entry): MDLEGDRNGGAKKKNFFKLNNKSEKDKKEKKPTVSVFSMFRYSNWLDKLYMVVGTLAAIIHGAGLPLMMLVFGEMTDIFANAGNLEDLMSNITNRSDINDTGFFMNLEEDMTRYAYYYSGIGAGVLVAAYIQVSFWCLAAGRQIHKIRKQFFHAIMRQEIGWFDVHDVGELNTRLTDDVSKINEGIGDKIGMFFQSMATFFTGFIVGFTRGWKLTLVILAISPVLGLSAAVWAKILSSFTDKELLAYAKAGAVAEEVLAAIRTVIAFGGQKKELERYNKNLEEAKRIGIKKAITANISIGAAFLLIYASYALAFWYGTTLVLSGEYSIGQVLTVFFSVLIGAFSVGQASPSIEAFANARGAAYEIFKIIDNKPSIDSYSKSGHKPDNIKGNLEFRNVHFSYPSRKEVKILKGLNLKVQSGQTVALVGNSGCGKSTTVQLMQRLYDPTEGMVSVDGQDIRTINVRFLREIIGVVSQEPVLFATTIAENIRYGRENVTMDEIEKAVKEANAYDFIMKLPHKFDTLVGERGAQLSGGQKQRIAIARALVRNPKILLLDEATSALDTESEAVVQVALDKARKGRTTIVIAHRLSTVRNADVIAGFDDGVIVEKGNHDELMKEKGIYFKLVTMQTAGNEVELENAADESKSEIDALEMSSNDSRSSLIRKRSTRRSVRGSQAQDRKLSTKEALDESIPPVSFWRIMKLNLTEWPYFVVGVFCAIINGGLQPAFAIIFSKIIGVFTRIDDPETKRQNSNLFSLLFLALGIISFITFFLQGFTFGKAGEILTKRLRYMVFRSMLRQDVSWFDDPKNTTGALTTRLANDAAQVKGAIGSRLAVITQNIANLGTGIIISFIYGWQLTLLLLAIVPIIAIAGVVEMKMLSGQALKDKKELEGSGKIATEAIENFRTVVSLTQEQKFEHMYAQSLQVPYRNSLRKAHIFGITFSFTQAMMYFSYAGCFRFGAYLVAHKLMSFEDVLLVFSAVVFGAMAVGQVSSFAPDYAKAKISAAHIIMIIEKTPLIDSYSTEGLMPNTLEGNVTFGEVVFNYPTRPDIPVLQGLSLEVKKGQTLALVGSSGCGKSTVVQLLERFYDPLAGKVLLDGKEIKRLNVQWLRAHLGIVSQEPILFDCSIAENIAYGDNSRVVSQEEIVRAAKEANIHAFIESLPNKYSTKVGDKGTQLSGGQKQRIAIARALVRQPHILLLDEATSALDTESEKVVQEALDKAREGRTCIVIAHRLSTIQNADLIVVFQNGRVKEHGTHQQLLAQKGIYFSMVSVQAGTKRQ

Row | Compound | Activity [1] | Activity [2]
1 | CREMOPHOR EL | inhibitor [+] | 
2 | CCCCCCCC/C=C\CCCCCCCC(=O)OCCOCC(OCCO)C1OCC(OCCO)C1OCCO (configuration not stated) [TWEEN 80] |  | inhibitor [+]
